Test results reported in US9259420B2, “Tetrandrine pharmaceutical formulations” (CBA Pharma, Inc., priority 2012, dated 2016).

Key:
[1] = bioequivalence study in rats: d-tetrandrine plasma concentration after oral gavage of free base versus hydrochloride salt (HPLC); format: in vivo, Sprague-Dawley rats
Description: A bioequivalence study in rats was conducted to compare the rate and extent to which the active drug ingredient (d-tetrandrine) is absorbed from a free base versus a hydrochloride salt. The drug ingredients were formulated in capsules by the University of Kentucky Center for Pharmaceutical Sciences and Technology (CPST) to administer equivalent amounts of d-tetrandrine to rats via oral gavage. Dosing syringes, capsule filling apparatus and mini capsules (size 9) appropriate for dosing rats were obtained from Torpac (Fairfield, N.J.).
A single rat per time point (destructive sampling) was used to obtain as much blood volume as possible for the HPLC analysis. This was necessary to accommodate analysis with the current UV based HPLC assay that had extensively been used at CBA Pharma. The JPLC analyses were performed at the CBA Pharma facilities, by a scientist with extensive experience in plasma based assay. Results were provided to a second scientist for evaluation and modeling.
Given the limited information on rat d-tetrandrine pharmacokinetics (PK), the studies were conducted in stages. A preliminary study (pilot) to identify the dose required for adequate assay sensitivity was first conducted using approximately 25 mg/kg and approximately 120 mg/kg doses administered in capsules. Four animals per dose level per formulation (acid or base) were administered drug. Sprague-Dawley rats were used for these studies and were obtained from Harlan Laboratories at least one weak prior to the experiments to allow animals to recover from shipping stress and to acclimate. Animals weighed 200-250 g at the time of the experiments. Animals were euthanized one hour after drug administration and blood was collected in EDTA containing tubes via cardiac puncture and rapidly centrifuged to separate the plasma. Typically, enough plasma was obtained to afford duplicate sample analysis. The plasma was stored at −80° C. until it was transported to CBA Pharma facilities in Styrofoam containers containing dry ice.
However, multiple capsules required for dosing higher doses were contributing to the pharmacokinetic variability observed in initial pilot studies. Thus in subsequent studies, younger and smaller animals were administered doses of approximately 150 mg/kg, and blood samples were obtained two hours after drug administration. These smaller animals were more difficult to dose because the size of the tablet. Three animals from the “acid” group and two animals from the “base” group were excluded based on the technician's judgment that some tissue damage had been done to the animals during the gavage dosing. […]
In some cases the plasma concentrations could not be determined due to extremely high interfering peaks. […]

[2] = dissolution in water when preparing the liquid dosing formulation; format: physicochemical; conditions: for 200 mg/kg dosing preparation
Description: Thus three animals were administered 200 mg/kg of each the acid and base formulations in liquid or suspension, respectively, to determine if the dosing and/or variability would improve. […] The solution, and suspension were prepared in water with 0.25% carboxymethylcellulose to facilitate fluidity during dosing. Samples were collected at 30 minutes, 1, 2, 5 and 24 hours after administration of […].

SMILES: COc1ccc2cc1Oc1ccc(cc1)C[C@H]1c3cc(c(OC)cc3CCN1C)Oc1c(OC)c(OC)cc3c1[C@H](C2)N(C)CC3 [d-tetrandrine]
- rate of absorption into the bloodstream, free base versus di-acid salt ([1]; free base formulations compared with di-acid salt formulations): substantially as rapidly as formulations of the di-acid salt
- d-tetrandrine plasma concentrations relative to the limit of the HPLC assay ([1]; rats, 100 mg/kg, liquid/suspension, oral gavage, sampled up to 48 hours, FIG. 4): well above the qualification limit of the HPLC assay for 48 hours
- AUC estimates (Bailer method), acid versus base formulation ([1]; rats, 100 mg/kg, oral gavage, p>0.05, FIG. 6): no statistical or otherwise significant difference
- plasma concentrations and dose normalized plasma concentrations, comparison of d-tetrandrine and d-tetrandrine-2HCl formulations ([1]; rats, higher dose (approximately 230 mg/kg capsules, 200 mg/kg liquid/suspension), oral gavage, Student t-test, two-tailed, p>0.05, FIG. 2): no statistical difference
- solubility in water [2]: did not dissolve in water
